According to US12486234B2, “PAPD5 inhibitors and methods of use thereof” (Children's Medical Center Corporation, priority 2019, dated 2025):

What was measured:
[1] = target: T1, PAPD5 (Homo sapiens, UniProt Q8NDF8); test: RNA oligo-adenylation (oligo-extension) inhibition assay with recombinant PAPD5; type: biochemical; set-up: key: minimal activity (0); range from minimal activity (0) to that of compound 1 (+++); range from minimal activity (0) to that of compound 1 (+++); that of compound 1 (+++); details: qualitative measure of RNA oligo-extension inhibition, relative to compound 1
T1 construct: made in house
Procedure: An in vitro RNA polyadenylation assay using recombinant PAPD5, ATP and an oligonucleotide substrate utilized the following phenomenon: ATP utilization by PAPD5 reads out as a decreased luminescence signal produced by luciferase (KinaseGlo, Promega, Madison, WI).
(§1) Qualitative measure of RNA oligo-extension inhibition for the tested compounds, expressed as range from minimal activity (0) to that of compound 1 (+++), and results of a DSF binding assay (shown as shift in temperature at 100 μM of the compound) are shown in the Table 2 below.

[2] = target: T1, PAPD5; test: DSF binding assay (shift in temperature); details: shift in temperature at 100 μM of the compound
Procedure: as §1

T1 sequence (Q8NDF8 68-698 isoform Q8NDF8-5 limits assumed): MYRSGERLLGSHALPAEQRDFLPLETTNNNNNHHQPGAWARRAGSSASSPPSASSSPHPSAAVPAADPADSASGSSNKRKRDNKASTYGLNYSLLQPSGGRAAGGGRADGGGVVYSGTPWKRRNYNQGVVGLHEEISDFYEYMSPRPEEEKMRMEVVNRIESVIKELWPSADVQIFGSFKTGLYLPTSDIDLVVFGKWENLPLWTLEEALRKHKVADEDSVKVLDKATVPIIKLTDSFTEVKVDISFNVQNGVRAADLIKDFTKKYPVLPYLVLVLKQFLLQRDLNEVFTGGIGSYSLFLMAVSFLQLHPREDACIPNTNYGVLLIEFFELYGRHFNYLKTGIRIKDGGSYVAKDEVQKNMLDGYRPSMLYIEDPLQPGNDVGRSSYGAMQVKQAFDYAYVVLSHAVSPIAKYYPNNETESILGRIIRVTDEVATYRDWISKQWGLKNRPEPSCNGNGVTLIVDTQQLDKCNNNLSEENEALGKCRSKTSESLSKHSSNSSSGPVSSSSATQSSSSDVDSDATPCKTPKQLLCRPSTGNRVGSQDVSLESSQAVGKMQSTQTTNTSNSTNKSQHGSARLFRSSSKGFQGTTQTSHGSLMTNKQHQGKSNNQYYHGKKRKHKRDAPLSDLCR

Compound | Inhibition of PAPD5 RNA oligo adenylation [1] | ΔTm at 100 µM [2] [°C]
O=C(O)c1c(O)cccc1Nc1c(-c2ncco2)cnc2ccc(Cl)cc12 [Compound 82A, 2-[(6-chloro-3-oxazol-2-yl-4-quinolyl)amino]-6-hydroxy-benzoic acid] | +++ | 13.5
CCOC(=O)c1cnc2ccc(OC(F)(F)F)cc2c1Nc1ncccc1C(=O)O [Compound 1A, 2-[[3-ethoxycarbonyl-6-(trifluoromethoxy)-4-quinolyl]amino]pyridine-3-carboxylic acid] | 0 | 0.4
NS(=O)(=O)c1cnc2ccc(Br)cc2c1Nc1ccccc1C(=O)O [Compound 61A, 2-[(6-bromo-3-sulfamoyl-4-quinolyl)amino]benzoic acid] | +++ | 11.1
O=c1c2cnc3ccc(OC(F)(F)F)cc3c2[nH]c2ccnn12 [Compound 30A, 6-(trifluoromethoxy)-14,15,16,17-tetrazatetracycloheptadeca-(6),1(7),2(8),3(15),4(9),5(16),10-heptaen-12-one] | 0 | 1.7
COCCCOc1cc2ncc(C#N)c(-n3ccc(=O)c(C(=O)O)c3)c2cc1OC [Compound 56A, 1-[3-cyano-6-methoxy-7-(3-methoxypropoxy)-4-quinolyl]-4-oxo-pyridine-3-carboxylic acid] | 0 | 0.4
CCOC(=O)c1cnc2ccc(OC(F)(F)F)cc2c1Nc1ccccc1-c1nn[nH]n1 [Compound 10A, ethyl 4-[2-(2H-tetrazol-5-yl)anilino]-6-(trifluoromethoxy)quinoline-3-carboxylate] | + | 1
CCOC(=O)c1ncn2c1[nH]c(=O)c1cnc3ccc(OC(F)(F)F)cc3c12 [Compound 31A, ethyl 14-oxo-7-(trifluoromethoxy)-17,18,19,20-tetrazatetracycloheptadeca-1(7),2(8),3(9),4(18),5(19),10,12-heptaene-12-carboxylate] | 0 | 1.8
O=C(O)c1cccn2c(=O)c3cnc4ccc(OC(F)(F)F)cc4c3nc12 [Compound 27A, 14-oxo-7-(trifluoromethoxy)-17,18,19-triazatetracyclooctadeca-(4),1(8),2(7),3(9),5(10),6(17),11,13(18)-octaene-8-carboxylic acid] | 0 | 2.8
